Measurements from patent US9776989B2, “Chromone alkaloid dysoline for the treatment of cancer and inflammatory disorders” (Council of Scientific & Industrial Research, priority 2013, dated 2017).

Assays:
A549 (lung) = assay: MTT cell viability assay, A549; format: cell-based; conditions: Homo sapiens, 48 h treatment
Method: (§1) Anticancer activity of dysoline (1) along with rohitukine was evaluated using MTT cell viability assay on […] cancer cell lines viz. Colo205 (colon), HCT116 (colon), HT1080 (fibrosarcoma), NCIH322 (lung), A549 (lung), Molt-4 (leukemia) and HL60 (leukemia).
(§2) The cell were originated from The European Collection of Cell Cultures (ECACC, UK) and purchased through Sigma-Aldrich India.
(§3) The MTT assay was used to assess the effect of the test molecules on cell viability. Cell viability on eight cell lines viz. Colo205 (colon), HCT116 (colon), HT1080 (fibrosarcoma), NCIH322 (lung), A549 (lung), Molt-4 (leukemia) and HL60 (leukemia) was investigated. In each well of a 96-well plate, 3×10^3 cells were grown in 100 μL of medium. After 24 h, each test molecules were added to achieve a final concentration of 10 to 0.01 μmol/L, respectively. After 48 h of treatment, 20 μL of 2.5 mg/mL MTT (Organics Research, Inc.) solution in phosphate buffer saline was added to each well. After […], supernatant was removed and formazan crystals were dissolved in 200 μL of DMSO. Absorbance was then measured at 570 nm using an absorbance plate reader (Bio-Rad Microplate Reader). Data are expressed as the percentage of viable cells in treated relative to non-treated conditions. Each experiment was repeated thrice and data was expressed as mean±SD of three independent experiments (Mol. Cancer Ther. 2010, 9, 358-368).

HT1080 (fibrosarcoma) = assay: MTT cell viability assay, HT1080; format: cell-based; conditions: 48 h treatment
Method: as §1, §2, §3

Water solubility = format: physicochemical
HL60 (leukemia) = assay: MTT cell viability assay, HL-60; format: cell-based; conditions: Homo sapiens, HL-60 (leukemia), 48 h treatment
Method: as §1, §2, §3

HCT116 (colon) = assay: MTT cell viability assay, HCT116; format: cell-based; conditions: Homo sapiens, HCT-116, 48 h treatment
Method: as §1, §2, §3

Molt-4 (leukemia) = assay: MTT cell viability assay, MOLT-4; format: cell-based; conditions: Homo sapiens, 48 h treatment
Method: as §1, §2, §3

IL-6 = assay: Inhibition of IL-6 production in splenocytes (ELISA); format: cell-based, male Balb/c mice; conditions: Splenocyte, mouse splenocytes, Con A or LPS, 72 h, read-out: Percentage inhibition of cytokine production, IL-6
Method: (§4) Anti-inflammatory activity of dysoline (1) was evaluated by inhibiting production of pro-inflammatory cytokines such as tumor necrosis factor-alpha (TNF-α) and interleukin-6 (IL-6). […] The TNF-α inhibition activity of dysoline was compared with rohitukine.
(§5) Splenocytes of male Balb/c mice were seeded into three to four wells of a 96-well flat-bottom microtiter plate (Nunc) at 2×10^6 cells/ml. Cells were incubated with different concentrations of dysoline (0.01 μM-100 μM) along with Con A (2.5 μg/well) or LPS (1 μg/ml) for 72 h at 37° C. with 5% CO2 in CO2 incubator. The culture supernatants were harvested and the measurement of cytokines (TNF-α and IL-6) in the culture supernatants was carried out using commercial kits as per manufacturer's instructions by using ELISA kits (R&D, USA) (Life Sci. 2007, 80, 1525-1538; J. Immunol. Methods 1983, 65, 55-63).

NCIH322 (lung) = assay: MTT cell viability assay, NCIH322; format: cell-based; conditions: NCI-H322, 48 h treatment
Method: as §1, §2, §3

TNF-α = assay: Inhibition of TNF-α production in splenocytes (ELISA); format: cell-based, male Balb/c mice; conditions: 72 h, Con A or LPS; for inhibition at 0.01 µM / inhibition at 0.1 µM / inhibition at 1 µM / inhibition at 10 µM / inhibition at 100 µM: Mus musculus, Splenocyte, read-out: Percentage inhibition of cytokine production, TNF-α
Method: as §4, §5

Colo205 (colon) = assay: MTT cell viability assay, Colo205; format: cell-based; conditions: Homo sapiens, COLO 205, 48 h treatment
Method: as §1, §2, §3

Stability = format: physicochemical
[1] = system: HCT-116 colon cancer cells; conditions: cited from earlier work
[2] = system: HL-60 promyelocytic leukemia; conditions: human HL-60 promyelocytic leukemia; cited from earlier work

Row | Compound | IC50 (A549 (lung)) [µM] | IC50 (HT1080 (fibrosarcoma); Homo sapiens, HT-1080, 48 h) [µM] | IC50 (HL60 (leukemia)) [µM] | IC50 (HCT116 (colon)) [µM] | IC50 (Molt-4 (leukemia)) [µM] | inhibition at 0.01 µM (IL-6) [%] | inhibition at 0.1 µM (IL-6) [%] | inhibition at 1 µM (IL-6) [%] | inhibition at 10 µM (IL-6) [%] | inhibition at 100 µM (IL-6) [%] | IC50 (NCIH322 (lung)) [µM] | inhibition at 0.01 µM (TNF-α) [%] | inhibition at 0.1 µM (TNF-α) [%] | inhibition at 1 µM (TNF-α; 1 μM) [%] | inhibition at 10 µM (TNF-α) [%] | inhibition at 100 µM (TNF-α) [%] | IC50 (Colo205 (colon)) [µM] | other results
1 | Cc1cc(=O)c2c(O)c(C3CCN(C)CC3O)c(O)cc2o1 (centres unmarked) [Dysoline (1), 5,7-dihydroxy-6-(3-hydroxy-1-methylpiperidin-4-yl)-2-methyl-4H-chromen-4-one] | > 10 | 0.21 | 10 | > 10 | > 10 | 72 | 83 | 83 | 89 | 99 | > 10 | 28 | 47 | 53 | 54 | 56 | > 10 | water solubility (Water solubility): good water solubility; melting point: 310 to 315 °C; stability (Stability): stable
2 | Cc1cc(=O)c2c(O)cc(O)c([C@H]3CCN(C)C[C@H]3O)c2o1 [Rohitukine, 5,7-dihydroxy-2-methyl-8-[4-(3-hydroxy-1-methyl)-piperidinyl]-4H-1-benzopyran-4-one] | > 10 | < 10 | 10 | > 10 | > 10 | 10 | 30 | 80 | 88 | 89 | > 10 | 18 | 22 | 32 | 32 | 47 | > 10 | IC50 (HT1080 (fibrosarcoma)): > 10 µM; cytotoxicity [1]: moderate cytotoxicity; cytotoxicity [2]: moderate cytotoxicity; Percentage inhibition of cytokine production, TNF-α (TNF-α; 1 μM, mouse splenocytes): 28%
